Holding throughout (assay): NCI anticancer screen, dose series, 48 h
The subject of assay [1] is T47D.
Assay [2] deals with MDA-MB-231.
The test system of assay [3] is MDA-MB-435.
The subject of assay [4] is SK-MEL-5.
The subject of assay [5] is Hs-578T.
Assay [6] deals with NCI-H460.
The subject of assay [7] is K562.
In assay [8] the test system is RXF 393.
Assay [9] has as its system HOP-92.
In assay [10] the test system is OVCAR-3.
In assay [11] the test system is IGROV-1.
Assay [12] deals with EKVX.
For assay [13], the system named is A498.
The test system of assay [14] is SF-295.
Assay [15] concerns COLO 205.
Assay [16] relates to LOX IMVI.
The subject of assay [17] is Malme-3M.
In assay [18] the test system is SN12C.
Assay [19] deals with BT-549.

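Five compound concentrations were applied to cells in 96-well plates for 48 hours; endpoints were derived by simple linear interpolation of the resulting dose-response curve. GI50 marks 50% less growth.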 Calls of active or inactive are those of the source. Cut-off read from the data, not from the text of the source: active = GI50 up to about 1.1 µM and inactive = higher.

Consider `CCOC(=O)c1csc(NC(=O)CN2CCCCC2)n1`, for which the GI50 in assay [1], in assay [2], in assay [3], in assay [4], in assay [5] and in assay [6] was > 100 µM (inactive) in each case. The GI50 in assay [7], in assay [8], in assay [9], in [10], in assay [11] and in assay [12] was > 100 µM (inactive) in each case. The GI50 in [13], in [14], in assay [15] and in assay [16] was > 100 µM (inactive) each time.

Take `Cc1cc2c3c(c1)CCCN3CCC2`: the GI50 in [1], in assay [17], in [2], in [3], in [4] and in [5] was > 10 µM (inactive) each time. For the same compound, the GI50 in assay [6], in [7], in assay [8], in assay [9], in [10] and in assay [11] was > 10 µM (inactive) throughout. The GI50 in [12], in assay [13], in assay [14], in [15], in assay [18] and in [16] was > 10 µM (inactive) each time.

As for `COc1ccc(N[C@H](C[S+]([O-])c2ccc(C)cc2)C(F)(F)C(F)(F)F)cc1` (stereo partly drawn), the GI50 was 14.1 µM (inactive) in assay [1]; > 100 µM (inactive) in assay [17]; > 100 µM (inactive) in assay [3]; 68.1 µM (inactive) in [4]; 85.1 µM (inactive) in assay [19]; 36.6 µM (inactive) in assay [5]. Further, the GI50 in assay [6] was > 100 µM (inactive); in [7], > 100 µM (inactive); in assay [8], 4.21 µM (inactive); in assay [9], 26.1 µM (inactive); in assay [10], > 100 µM (inactive); in assay [11], > 100 µM (inactive). Also, the GI50 was 65.2 µM (inactive) in assay [12]; > 100 µM (inactive) in assay [13]; 62.4 µM (inactive) in assay [14]; > 100 µM (inactive) in [15]; > 100 µM (inactive) in [18]; 91.4 µM (inactive) in assay [16].

`O=C(CN1CCN(Cc2ccccc2)CC1)c1ccc2[nH]c(=O)oc2c1`: the GI50 in assay [1] was > 100 µM (inactive); in assay [17], 0.845 µM (active); in assay [2] it was > 100 µM (inactive); in assay [3], > 30.5 µM (inactive); in [4], > 100 µM (inactive); in assay [19], > 100 µM (inactive). In addition, the GI50 in [6] was > 100 µM (inactive); in assay [7], > 100 µM (inactive); in assay [8] it was > 100 µM (inactive); in assay [9], 53.1 µM (inactive); in assay [10], > 100 µM (inactive); in assay [11], 99.3 µM (inactive). Besides, the GI50 was > 66.2 µM (inactive) in [12]; > 100 µM (inactive) in [13]; > 100 µM (inactive) in assay [14]; > 100 µM (inactive) in assay [15]; > 100 µM (inactive) in assay [18]; > 100 µM (inactive) in assay [16].

On to `O=C(/C=C1\Nc2ncccc2N=C1CC(=O)c1ccccc1)c1ccccc1`, for which the GI50 in [1] was 9.31 µM (inactive); in assay [17], 37.4 µM (inactive); in assay [2] it was 10.6 µM (inactive); in assay [3] it was 5.93 µM (inactive); in [4], 4.16 µM (inactive); in assay [19] it was 2.71 µM (inactive). Also, the GI50 was 15.6 µM (inactive) in assay [5]; 1.59 µM (inactive) in [6]; 5.11 µM (inactive) in assay [7]; 3.52 µM (inactive) in [9]; 1.66 µM (inactive) in assay [10]; 2.72 µM (inactive) in assay [11]. For the same compound, the GI50 in assay [13] was 7.35 µM (inactive); in assay [14], 4.44 µM (inactive); in assay [15], 4.97 µM (inactive); in [18] it was 2.24 µM (inactive); in assay [16], 5.12 µM (inactive).

Consider `O=C1C(=O)N(C2CCCCC2)C(=S)N1C1CCCCC1`, for which the GI50 in assay [1], in assay [17], in assay [2], in [3], in assay [4] and in assay [5] was > 100 µM (inactive) throughout. The GI50 in assay [6], in assay [7], in [8], in assay [9], in [11] and in assay [12] was > 100 µM (inactive) throughout. Further, the GI50 in [13], in assay [14], in assay [15], in assay [18] and in assay [16] was > 100 µM (inactive) throughout.

As to `O=S1(=O)C[C@H](NCc2ccccc2)[C@H](NCc2ccccc2)C1`, the GI50 was 30.8 µM (inactive) in assay [1]; > 100 µM (inactive) in [17]; > 100 µM (inactive) in [2]; > 100 µM (inactive) in assay [3]; > 100 µM (inactive) in [4]; 94.2 µM (inactive) in [19]. For the same compound, the GI50 in assay [5] is 73.3 µM (inactive); in assay [6], > 100 µM (inactive); in assay [7], 54.5 µM (inactive); in assay [8], > 100 µM (inactive); in [9], > 100 µM (inactive); in [10], > 100 µM (inactive). The GI50 in assay [11], in assay [12], in [14], in assay [15], in [18] and in [16] was > 100 µM (inactive) each time.

As to `COC(=O)C1=C(O)C(C(=O)OC)[C@@]2(O)[C@@H](C(=O)OC)[C@H](C)C[C@@H]1[C@@H]2C(=O)OC` (stereo partly drawn), the GI50 was 46.8 µM (inactive) in assay [1]; 42.9 µM (inactive) in [17]; 14.1 µM (inactive) in assay [2]; 14.7 µM (inactive) in assay [3]; 32.9 µM (inactive) in [19]; 19.9 µM (inactive) in [5]. In addition, the GI50 was 20 µM (inactive) in assay [6]; 23.2 µM (inactive) in assay [7]; 15.4 µM (inactive) in assay [8]; 20 µM (inactive) in assay [10]; 22.4 µM (inactive) in assay [12]; 15.5 µM (inactive) in assay [13]. The GI50 is 36.6 µM (inactive) in assay [18] and 32.5 µM (inactive) in [16].

In the case of `COc1ccc(N2C(=O)C3c4[nH]c5ccc(F)cc5c4C4CCC(C(C)(C)C)CC4C3C2=O)cc1` (stereo not drawn), the GI50 is 9.25 µM (inactive) in [1]; > 10 µM (inactive) in assay [17]; > 10 µM (inactive) in [2]; > 10 µM (inactive) in assay [3]; > 10 µM (inactive) in assay [4]; 2.81 µM (inactive) in assay [5]. The GI50 was 5.07 µM (inactive) in assay [6]; > 10 µM (inactive) in [8]; > 10 µM (inactive) in assay [10]; > 10 µM (inactive) in [11]; > 10 µM (inactive) in assay [12]; > 10 µM (inactive) in assay [13]. Besides, the GI50 was 6.04 µM (inactive) in assay [14], > 10 µM (inactive) in assay [15] and > 10 µM (inactive) in assay [18].

As for `CC(C)(C)N(Cc1ccoc1)C(=O)/C=C\[S+]([O-])c1ccccc1` (stereo not drawn), the GI50 in assay [1] is 14.6 µM (inactive); in assay [2], 20.2 µM (inactive); in assay [3], 6.79 µM (inactive); in [4], 13.4 µM (inactive); in assay [19] it was 10.7 µM (inactive); in assay [5], 28.4 µM (inactive). For the same compound, the GI50 is 26.6 µM (inactive) in [7]; 15 µM (inactive) in assay [9]; 13.3 µM (inactive) in assay [10]; 15 µM (inactive) in assay [11]; 22.8 µM (inactive) in assay [12]; 31 µM (inactive) in assay [13]. Also, the GI50 was 29.9 µM (inactive) in assay [14], 22.3 µM (inactive) in [15], 20.9 µM (inactive) in [18] and 5.45 µM (inactive) in [16].

`CSc1ccccc1P(c1ccccc1SC)c1ccccc1SC`: the GI50 was 2.62 µM (inactive) in assay [1]; > 100 µM (inactive) in assay [17]; > 100 µM (inactive) in [2]; > 100 µM (inactive) in assay [3]; > 100 µM (inactive) in assay [4]; > 100 µM (inactive) in [19]. For the same compound, the GI50 in [5] is 98.2 µM (inactive); in [7] it was > 100 µM (inactive); in [9], > 100 µM (inactive); in assay [12] it was > 100 µM (inactive); in assay [13], > 100 µM (inactive); in [14], > 100 µM (inactive). Moreover, the GI50 in assay [18] and in assay [16] was > 100 µM (inactive) in each case.

Regarding `COc1c(OC)c(OC)c2c(c1OC)c(=O)c1ccccc1n2C` [MELICOPICINE], the GI50 is 54.3 µM (inactive) in assay [1]; > 100 µM (inactive) in assay [2]; > 100 µM (inactive) in assay [3]; > 100 µM (inactive) in [4]; > 100 µM (inactive) in assay [19]; > 100 µM (inactive) in [5]. Further, the GI50 in assay [6] is > 10 µM (inactive); in assay [7], > 100 µM (inactive); in [9], > 100 µM (inactive); in [10] it was > 100 µM (inactive); in assay [11], > 100 µM (inactive); in assay [12], > 100 µM (inactive). The GI50 in [13], in [14], in assay [15], in assay [18] and in [16] was > 100 µM (inactive) each time.

Source of the values: ChEMBL document CHEMBL1201862, “PubChem BioAssay data set” (2004).
